Measured values from a melting point compilation (Tetko et al.; mined from patent text by program, amines drawn as free bases though some values may be those of a salt).

Compound | melting point
COc1ccc(CNCCCOc2ccc(NC(=O)c3cccc4c(=O)c5ccccc5[nH]c34)cc2)cc1OC | 138 to 139 °C
O=C(O)CCCC(=O)Nc1cccc(-c2ccnc3c(C(=O)c4cccs4)cnn23)c1 | 189 to 190 °C
Oc1cccc(-n2nc(-c3ccccc3)c3cccnc32)c1 | 142 to 144 °C
Fc1ccc(Cn2c(NC3CCN(CCc4ccccc4)C3)nc3ccccc32)cc1 (centres undefined) | 126 °C
CCOC(=O)Nc1ccc(Cl)nc1 | 110 °C
C=CCSc1nc(-c2ccc(OC)cc2)c(-c2ccc(OC)cc2)s1 | 57 to 58 °C
COc1c(Cl)cc(C(=O)Cl)cc1Cl | 153 to 157 °C
CCOC(=O)C1CN(c2cc3ccccc3c(=O)[nH]2)CCN1C (centres undefined) | 105 to 109 °C
COc1ccc(C(=O)Nc2ccccc2)cc1NCc1cc(C)cc(C)c1 | 168 to 170 °C
C(=C\c1nc(COc2ccc(CCCn3ccnc3)cc2)co1)/c1ccccc1 | 127 to 128 °C
COc1ccc(-c2cc(C(F)(F)F)n(C)c2-c2ccc(OC)cc2)cc1 | 125 to 126 °C
O=c1ccn2nc(-c3ccncc3)c(-c3ccc(F)cc3)c2[nH]1 | 298 to 299 °C
CCCCc1cc2ccccc2c(Oc2ccc(/C=C/C(=O)O)cc2)c1-c1ccccc1 | 160 to 161 °C
CCSc1nnc(S)n1N | 172 °C
CCOC(=O)c1cnc(NN)nc1-c1ccccc1 | 74 to 75 °C
Cn1cc(C(=O)NCc2ccc(Cl)cc2)c(=O)c2cc(CC3CCOCC3)cc(I)c21 | 175 to 177 °C
CC(C)Cn1cnc2c(Br)c(NC3=NCCN3)ccc21 | 226 to 227 °C
CN(C)C=Cc1[nH]c(=O)ccc1C(=O)c1ccccc1 | 202 to 204 °C
CC(=O)Nc1c(C)cc(O)c(C)c1C | 189 to 190 °C
COC(=O)C1CC2c3cccc4c3C(CN4)CC2N(C)C1 (centres undefined) | 110 to 120 °C
CCN(C(C)=O)c1cccc(-c2ccc(Cl)nn2)c1 | 116 to 119 °C
CCNc1c(C(F)(F)F)cc([N+](=O)[O-])c(NN(C)C)c1[N+](=O)[O-] | 108 to 116 °C
CCOC(=O)c1cc(C)c(Cl)nc1Nc1ccccc1F | 122 to 126 °C
CNC(=O)ON(C(=O)NC)C(=O)C(C)(C)C | 117 to 119 °C
CC(C)Cc1ccc2sc3cc(CC(=O)O)ccc3c2c1 | 133 to 135 °C
CCn1nc2c(N)nc3cc(OS(=O)(=O)C(F)(F)F)ccc3c2c1CCc1ccccc1 | 178 to 179 °C

Compound | melting point
O=C(Nc1ccc(C(=O)N2Cc3cccnc3Oc3ccccc32)cn1)c1ccccc1-c1ccccc1 | 107 to 114 °C
CS(=O)(=O)c1c(C(=O)NN=Cc2ccc3ccccc3c2)[nH]c2ccccc12 | > 250 °C
CCC(CC)O[C@@H]1C=C(C(=O)O)C[C@H](CC2CO2)[C@H]1NC(C)=O (some centres undefined) | 115 to 116 °C
Cc1nnc(-c2ccnc(NCc3ccccn3)c2)o1 | 137 to 138 °C
CNc1ccc(Sc2nnnn2C)c2cc(-c3nccs3)[nH]c12 | 211 °C
COc1ccc(C2=NN(C3CCN(c4ncccn4)CC3)C(=O)[C@@H]3CC=CC[C@H]23)cc1OC | 163 to 166 °C
CCCCCCCCC(=O)OC(C)c1ccc(-c2ccc(OC)cc2)cc1 (single isomer, unassigned; (+)) | 59 to 60 °C
CN1C(=O)N(c2ccccc2O)Cc2cnc(Nc3ccccc3)nc21 | 192 °C
CCC(=O)c1ccc(SC)cn1 | 52 to 53 °C
O=C(Nc1ccc(F)cc1)C12CC3CC(CC(C3)C1)C2 | 170 to 171 °C
NS(=O)(=O)c1cc2c(Cl)csc2s1 | 158 to 160 °C
COc1ccc2cc(SCCC(=O)O)n(C)c2c1 | 120 to 122 °C
COc1cc(OC)c2c(=O)[nH]c(-c3ccc(CN4CCOCC4)cc3)nc2c1 | 206 to 208 °C
O=C1CCC(N2C(=O)c3cccc(NC(=O)c4cccc([N+](=O)[O-])c4)c3C2=O)C(=O)N1 (centres undefined) | 245 to 247 °C
CC(C)(Cl)C(=O)c1ccc(C(=O)c2ccc(C(=O)C(C)(C)Cl)cc2)cc1 | 82 to 83 °C
CCn1ccnc1CNC(=O)c1[nH]c2ccc(Cl)cc2c1S(=O)(=O)c1ccccc1 | 204 to 206 °C
CCC(=O)c1cc(C2(c3cccc(NC(=O)COC)c3)N=C(N)N(C)C2=O)cn1CC (centres undefined) | 95 to 115 °C
CCCC(C(C)=CC(CNC(=O)c1cccnc1)=NO)[N+](=O)[O-] (centres undefined) | 128 to 131 °C
O=C(Nc1ccc([N+](=O)[O-])cc1O)OCc1ccccc1 | 200 °C
COC(=O)c1ccc(-c2nnc(-c3ccccc3)o2)cc1 | 172 to 173 °C
COc1cc(OC)nc(Oc2ccccc2C=O)n1 | 81 °C
CCCn1nc(C(C)C)c(C(=O)OCc2ccccc2C(=O)c2ccccc2)c1Cc1ccc(-c2ccccc2S(=O)(=O)NC(=O)OCC(C)C)c(F)c1 | 52 to 59 °C
Cc1cc(C#N)cc(CBr)c1 | 80 to 81 °C
Clc1ccc2c3c(cccc13)-c1ccccc1-2 | 95 to 98 °C
O=C1c2cc(Sc3ccccc3)c(Sc3ccccc3)cc2C(=O)c2c1c(O)c1cc(Sc3ccccc3)c(Sc3ccccc3)cc1c2O | > 260 °C
COC(=O)Cn1c(C(=O)OCc2ccccc2)cc2cc(C)cc(C)c21 | 91 to 93 °C

Compound | melting point
N#Cc1ccc(NCC(=O)Nc2c(Cl)ccc3nc(N4CC[C@@H](O)C4)ccc23)cc1 | 230 to 233 °C
Cc1ccc(OCCOc2ccc(C)cc2)cc1 | 134 °C
CC(C)OC(=O)C(C)(C)c1cn2nc(Cl)ccc2n1 | 100 to 101 °C
CCCCCCC#CCC#CCC#CCC#CCCCC(=O)NO | 85 to 88 °C
COC(=O)Nc1nc2ccc(O)cc2[nH]1 | 300 °C
CC(C)(C)OC(=O)N1CCc2c(n(CCO)c3c(Cl)cc(Cl)cc23)CC1 | 183 to 184 °C
CCOC(=O)CC1=NN(c2ccc(C(=O)O)cc2)C(=O)C1 | 246 °C
NC(=O)CC1C=CC=CC1(F)F (centres undefined) | 113 to 114 °C
OC(CCl)CNc1nc2ccnc(-c3cccc(C(F)(F)F)c3)n2n1 (centres undefined) | 141 to 142 °C
COc1ccc(SCCCCNC(P(=O)(O)O)P(=O)(O)O)cc1 | 188 to 189 °C
COC(=O)c1cc(-n2cnc(Br)c2)c(C(F)(F)F)cc1[N+](=O)[O-] | 90 °C
COc1ccc(C=Cc2oc3ccc(Br)cc3c2C(C)=O)cc1 | 163 to 165 °C
Cc1cc2cc(CN3CCC(CCCC(N)=O)CC3)cnc2cc1NC(=O)c1ccc(-c2ccc(F)cc2)cc1 | 228 °C
COc1ccc(Cn2c(C)cc3cnnc(OCc4ccccc4)c32)cc1 | 152 to 156 °C
O=c1c2c([nH]n1-c1c(F)cc(Cl)c3nc(Cl)sc13)CCCC2 | 191 to 197 °C
CC1(C)[C@H]2CC=C(CCOCC(=O)O)[C@@H]1C2 | 78 to 80 °C
COc1ccc(C2(C#N)CCC(=O)CC2)c2c1OCCO2 | 157 to 161 °C
CC1(C(=O)CC(=O)c2ccc(S(C)(=O)=O)c(Cl)c2Cl)CC1 | 143 °C
C[C@@H](n1cnc2c(Cl)cccc2c1=O)[C@](O)(Cn1cncn1)c1ccc(F)cc1F | 110 to 113 °C
CC(=O)N(C)C(CCl)C(=O)O (centres undefined) | 104 °C
O=C(c1ccc(Br)cc1Cl)c1cccc2c1Nc1ncccc1CN2 | 165 to 168 °C
COC(=O)Cc1c(C)n(O)c(=O)c2ccccc12 | 185 to 190 °C
Nc1nnc2ccc(-c3ccco3)nn12 | 203 to 206 °C
N#Cc1ccc2c(c1)C(=O)CC1(CCCCC1)O2 | 92 to 93 °C
COC(=O)CCc1ccccc1Cc1ccccc1C(=O)O | 123 to 126 °C
O=C(CNC(=O)CN1CCCC1=O)NCC(=O)Nc1ccncc1 | 250 to 253 °C

Compound | melting point
CC(C)n1nc(-c2c(-c3ccccc3)nn3ccc(OCCC4CCCC4)cc23)ccc1=O | 160 °C
COc1nsc(NC(=O)CBr)n1 | 198 to 199 °C
COCC(=O)Nc1nc(NC(=O)COC)nc(NC2CC2)n1 | 175 to 180 °C
CC(CCO)c1ccc(-c2ccccc2)c(F)c1 (centres undefined) | 72 °C
COc1ccccc1C(=O)c1sc(Nc2cccnc2)nc1N | 245 to 246 °C
CN(C)CCS(=O)(=O)NC(=O)CCn1c2ccc(O)cc2c2c3c(c(-c4ccccc4Cl)cc21)C(=O)NC3=O | 229 to 233 °C
Cn1c(=O)nc(-c2ccccc2Cl)c2ccsc21 | 225 to 226 °C
CCCc1c(OCCCCC(C)(C)c2nnn[nH]2)ccc(C(C)=O)c1O | 112 to 115 °C
CNC(=NC#N)NCCSCc1csc(NC(N)=NC(=O)c2ccccc2)n1 | 179 to 181 °C
S=C1CN=C(c2ccccn2)c2cc(I)ccc2N1 | 242 °C
CCOC(=O)c1cn(CCCl)c2nc(N3CCN(C(=O)OCC)CC3)c(F)cc2c1=O | 143 to 144 °C
CCOC(=O)c1nc(-c2ccc(Cl)cc2)c(F)c(N)c1Cl | 103 to 104 °C
COC1(c2cnc(OCc3ccc(/C(C)=N/O)cc3)s2)CCOCC1 | 107 to 109 °C
CCNc1nc(NCc2ccco2)nc(Nc2ccc(O)cc2)n1 | 76 to 78 °C
O=Cc1ccc(Cl)c(Cl)c1O | 97 °C
COC(=O)C(=O)Nc1ccc(C#N)c(NC(=O)C(=O)OC)c1 | 155 to 160 °C
C#CCNc1ccc([N+](=O)[O-])cc1C(F)(F)F | 71 to 72 °C
NC(=O)c1nccn1C1Cc2ccccc2C1=O (centres undefined) | 183 °C
CC(NC(=S)Nc1ccc(NCCN)nc1)C(C)(C)C (centres undefined) | 138 to 140 °C
Cc1cccc(-c2nc3ccccn3c2-c2ccnc(-c3ccc(CN4CCOCC4)cc3)c2)n1 | 156 °C
Cc1ccc(NC(=O)C(CC2CCCC2)c2ccc(S(C)(=O)=O)cc2)nc1 (centres undefined) | 82 to 85 °C
Oc1ncnc2c1cnn2C1OC(COCc2ccccc2)C(OCc2ccccc2)C1OCc1ccccc1 (centres undefined) | 204 °C
O=C(Cl)c1ccc(Cl)cc1[N+](=O)[O-] | 95 to 96 °C
CCOC(=O)Nc1c(C(=O)OCC)oc2cc(OCc3ccccc3)ccc12 | 100 °C
COC(=O)c1ccccc1S(=O)(=O)NC(=O)Nc1nc(Cl)c(C)c(OC)n1 | 204 to 205 °C
O=C(CCC1OC=CO1)c1ccc2c(c1)OCO2 | 94 to 96 °C
